Several values for one entry are separate records, joined by “and”; a condition that tells them apart may be missing. Equal entries are not always repeated.
Assay: xn = mol fraction of the nth substance listed

O=[N+]([O-])[O-].O=[N+]([O-])[O-].[Mg+2] + O + CC[NH3+].O=[N+]([O-])[O-]
100 kPa
Settings	electrical conductivity [S/m]	viscosity [mPa·s]
223 K, x1 = 0.2128, x2 = 0.6185	0.001	–
233 K, x1 = 0.2128, x2 = 0.6185	0.006	–
243 K, x1 = 0.1395, x2 = 0.4931	0.002	–
243 K, x1 = 0.2128, x2 = 0.6185	0.02	–
253 K, x1 = 0.1395, x2 = 0.4931	0.019	–
253 K, x1 = 0.2128, x2 = 0.6185	0.052	–
263 K, x1 = 0.1395, x2 = 0.4931	0.077	–
263 K, x1 = 0.2128, x2 = 0.6185	0.113	–
273 K, x1 = 0.1395, x2 = 0.4931	0.206	–
273 K, x1 = 0.2128, x2 = 0.6185	0.216	–
283 K, x1 = 0.1395, x2 = 0.4931	0.429	–
283 K, x1 = 0.2128, x2 = 0.6185	0.375	–
288.15 K, x1 = 0.1395, x2 = 0.4931	–	172
288.15 K, x1 = 0.2128, x2 = 0.6185	–	334
293 K, x1 = 0.1395, x2 = 0.4931	0.76	–
293 K, x1 = 0.2128, x2 = 0.6185	0.602	–
293.15 K, x1 = 0.1395, x2 = 0.4931	–	138.7
293.15 K, x1 = 0.2128, x2 = 0.6185	–	253
298.15 K, x1 = 0.1395, x2 = 0.4931	–	112.6
298.15 K, x1 = 0.2128, x2 = 0.6185	–	193
303 K, x1 = 0.1395, x2 = 0.4931	1.2	–
303 K, x1 = 0.2128, x2 = 0.6185	0.91	–
303.15 K, x1 = 0.1395, x2 = 0.4931	–	92
303.15 K, x1 = 0.2128, x2 = 0.6185	–	148.9
308.15 K, x1 = 0.1395, x2 = 0.4931	–	75.7
308.15 K, x1 = 0.2128, x2 = 0.6185	–	115.8
313 K, x1 = 0.1395, x2 = 0.4931	1.74	–
313 K, x1 = 0.2128, x2 = 0.6185	1.31	–
313.15 K, x1 = 0.1395, x2 = 0.4931	–	62.7
313.15 K, x1 = 0.2128, x2 = 0.6185	–	90.7
323 K, x1 = 0.1395, x2 = 0.4931	2.37	–
323 K, x1 = 0.2128, x2 = 0.6185	1.8	–
333 K, x1 = 0.1395, x2 = 0.4931	3.08	–
333 K, x1 = 0.2128, x2 = 0.6185	2.39	–
343 K, x1 = 0.1395, x2 = 0.4931	3.86	–
343 K, x1 = 0.2128, x2 = 0.6185	3.08	–
353 K, x1 = 0.1395, x2 = 0.4931	4.69	–
353 K, x1 = 0.2128, x2 = 0.6185	3.88	–
363 K, x1 = 0.1395, x2 = 0.4931	5.56	–
363 K, x1 = 0.2128, x2 = 0.6185	4.78	–
373 K, x1 = 0.1395, x2 = 0.4931	6.46	–
373 K, x1 = 0.2128, x2 = 0.6185	5.78	–

CCCC[n+]1ccn(C)c1.O=[N+]([O-])[O-] + CCCCCCCO
viscosity [mPa·s], 100 kPa
Settings	293.15 K	303.15 K	313.15 K	323.15 K
x1 = 0.0824	7.76	5.5	3.98	2.87
x1 = 0.1625	8.67	6.03	4.34	3.03
x1 = 0.2317	9.68	6.61	4.7	3.23
x1 = 0.3446	11.46	7.53	5.37	3.67
x1 = 0.4317	13.2	8.53	5.96	4.12
x1 = 0.5762	18.7	11.56	7.74	5.01
x1 = 0.6416	24.3	14.4	9.06	5.69
x1 = 0.7334	41.3	22.6	14	8.49
x1 = 0.8418	82.4	43	26.4	15.8
x1 = 0.9327	146	77.8	47.8	28.1
x1 = 1	224	125	75.1	45.2

CCOS(=O)(=O)[O-].CC[n+]1ccn(C)c1 + OCCO
100 kPa
Settings	electrical conductivity	viscosity
293.15 K, x1 = 0.2999	–	20.52 mPa·s
293.15 K, x2 = 0.406	–	41.6 mPa·s
298.15 K, x1 = 0.001	0.0067 S/m and 0.0121 S/m	16 mPa·s and 16.9 mPa·s
298.15 K, x2 = 0	–	95.9 mPa·s
298.15 K, x2 = 0.597	0.95 S/m	21.7 mPa·s
298.15 K, x2 = 0.851	0.72 S/m	14.8 mPa·s
303.15 K, x1 = 0.001	–	13.8 mPa·s
303.15 K, x1 = 0.5992	–	28.04 mPa·s
303.15 K, x1 = 0.6994	–	37.14 mPa·s
303.15 K, x2 = 0.792	–	13 mPa·s
308.15 K, x1 = 0.1982	–	10.85 mPa·s
308.15 K, x1 = 0.2999	–	12.62 mPa·s
313.15 K, x1 = 0.001	0.0115 S/m and 0.0206 S/m	9.15 mPa·s and 9.54 mPa·s
313.15 K, x1 = 0.003	0.0362 S/m	9.48 mPa·s
313.15 K, x1 = 0.008	0.097 S/m	9.49 mPa·s
313.15 K, x1 = 0.1982	–	9.37 mPa·s
313.15 K, x2 = 0.406	1.27 S/m	20.6 mPa·s
313.15 K, x2 = 0.938	0.59 S/m	9.05 mPa·s
318.15 K, x1 = 0.1982	–	8.15 mPa·s
318.15 K, x1 = 0.4002	–	11.61 mPa·s
318.15 K, x1 = 0.8001	–	27.31 mPa·s
318.15 K, x1 = 0.8993	–	35.33 mPa·s
323.15 K, x1 = 0.1003	–	6.66 mPa·s
333.15 K, x1 = 0.1003	–	5.1 mPa·s
333.15 K, x1 = 0.1982	–	5.59 mPa·s
333.15 K, x1 = 0.5005	–	9.85 mPa·s
338.15 K, x1 = 0.5992	–	10.45 mPa·s
343.15 K, x1 = 0.5005	–	7.87 mPa·s
343.15 K, x1 = 0.5992	–	9.34 mPa·s
343.15 K, x1 = 0.8001	–	13.58 mPa·s

CCCCn1cc[n+](CCOCCOCCOCC[n+]2ccn(CCCC)c2)c1.O=S(=O)([N-]S(=O)(=O)C(F)(F)F)C(F)(F)F.O=S(=O)([N-]S(=O)(=O)C(F)(F)F)C(F)(F)F + CC[n+]1ccn(C)c1.N#C[N-]C#N + O=S(=O)([N-]S(=O)(=O)C(F)(F)F)C(F)(F)F.[Li+]
100 kPa, x1 = 0.1386, x2 = 0.7575
Settings	electrical conductivity [S/m]
298 K	0.61
303 K	0.773
313 K	0.902
323 K	1.18
333 K	1.51
344 K	1.89

CC(=O)[O-].Cn1cc[nH+]c1 + CCO
293.15 K, 101.3 kPa
Settings	electrical conductivity [S/m]
x2 = 0	0.326
x2 = 0.9371	0.448

CCOS(=O)(=O)[O-].CC[n+]1ccn(C)c1 + CCCCCCO
100 kPa
Settings	viscosity [mPa·s]
288.15 K, x1 = 1	155.5
293.15 K, x1 = 0.1016	7.885
303.15 K, x1 = 0.5956	27.85
323.15 K, x1 = 0.4975	11.85

From the CheMixHub ionic liquid set
